Counter-ions that a name gives are not always drawn.
What was measured:
in vivo = settings: mouse, oral, mice, 7 days observation
[1] = system: gastric emptying delayed by cholecystokinin; assay: Effect on gastric emptying delayed by cholecystokinin; assay type: in vivo, Male Wistar rats; design: key to Effect on gastric emptying delayed by cholecystokinin: +: slightly to moderately improved; ++: markedly improved; ±: no improvement; settings: for Effect on gastric emptying delayed by cholecystokinin: cholecystokinin 3 μg/kg s.c.
Protocol: (§1) The test was carried out according to the method of Scarpignato et al. [c f. Arch. int. Pharmacodyn., 246, 286-294 (1980)]. Male Wistar rats, weighing 130-150 g, were fasted for 18 hours before experimentation, and 1.5 ml of a test meal (phenol red 0.05% in a 1.5% aqueous methylcellulose solution) was orally given. Fifteen minutes after administration of the meal the stomach was removed and the amount of phenol red remaining in the stomach was measured. The test compounds, 10, 30 or 100 mg/kg, each dissolved or suspended in a 0.5% tragacanth solution, were orally administrated 60 minutes before administration of the test meal. Gastric emptying was delayed by subcutaneous administration of cholesystokinin 3 μg/kg or morphine 3 mg/kg 5 minutes before the administration of phenol red. The number of animals used was 5 to 10.

[2] = system: gastrointestinal motility; assay: Gastrointestinal motility improving activity (overall statement); settings: in vivo
[3] = system: gastrointestinal motility; assay: Effect on gastrointestinal motility in conscious dog; assay type: in vivo, beagle dogs; settings: 3 and 10 mg/kg intragastric; fed state, conscious dogs
Protocol: Four healthy beagle dogs per group of both sexes weighing 10 to 12 kg were anesthetized with an i.v. injection of pentobarbital sodium (Nembutal, 30 mg/kg b. wt.), and the abdominal cavity was opened under aseptic conditions. Extraluminal force transducers were sutured onto the seromuscular layer of the gastric antrum, 3 cm proximal to the pyloric ring, the duodenum, the jejunum, the […] terminal ileum in a manner to measure circular muscle contraction, following the method of Ito et al., [cf. Gastrointerol. Japan. 12, 275-283 (1977).] For intragastric (i.g.) administration of drugs, a Silastic tube (Fr. size 6.5) was inserted into the lumen of the gastric body, and the tube was fixed onto the adjacent serosa. The lead wires of these transducers and gastric tube were taken out of abdominal cavity and then brought out through a skin incision made between the scapulae. The outer ends of the lead wires were sutured onto the skin adjacent to the skin incision. After the operation, jacket protector was placed on the dog to protect the lead wires and the Silastic tube. The dogs were housed in individual experimental cages and given dog food at 10 a.m., and water was given freely. Test compounds at 3 and 10 mg/kg were suspended in 0.5% tragacanth solution and given i.g. through the indwelling Silastic tube.

[4] = system: gastric emptying delayed by morphine; assay: Effect on gastric emptying delayed by morphine; assay type: in vivo, Male Wistar rats; design: key to Effect on gastric emptying delayed by morphine: +: slightly to moderately improved; ++: markedly improved; ±: no improvement; settings: for Effect on gastric emptying delayed by morphine: morphine 3 mg/kg s.c.
Protocol: as §1

gastric emptying = assay: Gastric emptying enhancing activity; assay type: in vivo, Male Wistar rats; settings: 3 mg/kg oral, 60 min before test meal; increase from control
Protocol: The test was carried out according to the method of Scarpignato et al. [cf. Arch. Int. Pharmacodyn., 246, 286-294 (1980)]. Male Wistar rats, weighing 130-150 g, were fasted for 18 hours before experimentation, and 1.5 ml of a test meal (phenol red 0.05% in a 1.5% aqueous methylcellulose solution) was orally given. Fifteen minutes after administration of the meal the stomach was removed and the amount of phenol red remaining in the stomach was measured. The test compounds, dissolved or suspended in a 0.5% tragacanth solution, were orally administered 60 minutes before administration of the test meal. The rate of gastric emptying was calculated according to the amount of phenol red remaining in the stomach, and the activity of the test compounds was expressed in terms of increase in the emptying rate from the control.

[5] = system: apomorphine-induced vomiting; assay: Inhibitory effect on apomorphine-induced vomiting; assay type: in vivo, dogs (Beagle); settings: 2 h before s.c. apomorphine hydrochloride 0.3 mg/kg, emetic episodes 1 h
Protocol: A group of 3-4 dogs (Beagle, 8-15 kg) was used for examining inhibitory effects of the test compounds on apomorphine-induced vomiting according to the method of Chen and Ensor [cf. J. Pharmacol. Exp. Ther., 98, 245-250 (1950)]. Test compounds, dissolved or suspended in a 0.5% tragacanth solution were orally administered two hours before the subcutaneous administration of apomorphine hydrochloride (0.3 mg/kg). Then, the emetic episodes were counted for one hour. The emetic episodes of the compound-treated group were compared with those of the corresponding control (non-dosed) group, and the percent inhibition was calculated.

exploratory activity = assay: Inhibitory effect on exploratory activity; assay type: in vivo, male mice (Std-ddy strain); settings: oral, 2 h before test; 3 min counting; Probit
Text: A group of 5 male mice (Std-ddy strain, 20-25 g) was used. Two hours after oral administration of the test compounds in the form of 0.5% tragacanth solution or suspension, mice were placed individually in a test box (23×35×30 cm) on Animex activity meter (Farad Co.). Immediately thereafter, activity counting was started and lasted for three minutes. The mean counts of the compound-treated group were compared with those of the corresponding control (non-dosed) group, and the percent inhibition was calculated and the 50% inhibitory dose (ID50) was obtained according to the method of Probit.

dopamine D2 receptor = settings: cited from earlier work

Compound	LD50 at 168 h (in vivo)	Effect on gastric emptying delayed by cholecystokinin ([1]; 10 mg/kg oral)	Effect on gastric emptying delayed by cholecystokinin ([1]; 30 mg/kg oral)	Effect on gastric emptying delayed by cholecystokinin ([1]; 100 mg/kg oral)	Gastric emptying delayed by cholecystokinin (in words) ([1]; compound 2: 30 or 100 mg/kg, 7b and Compound A: 10, 30 or 100 mg/kg)	Gastrointestinal motility improving activity (in words) [2]	Interdigestive migrating like-contractions [3]	Effect on gastric emptying delayed by morphine ([4]; 10 mg/kg oral)	Effect on gastric emptying delayed by morphine ([4]; 30 mg/kg oral)	Effect on gastric emptying delayed by morphine ([4]; 100 mg/kg oral)	Gastric emptying delayed by morphine (in words) ([4]; 10, 30 or 100 mg/kg)	Increase in gastric emptying rate (gastric emptying)	Inhibition of apomorphine-induced vomiting ([5]; 0.1 mg/kg oral)	Inhibition of apomorphine-induced vomiting ([5]; 1.0 mg/kg oral)	ID50 (inhibition of exploratory activity) (exploratory activity)	Dopamine D2 receptor antagonistic activity (dopamine D2 receptor)	CNS depressant activity (dopamine D2 receptor; derived from dopamine D2 receptor antagonistic activity)
CCN1CCCC[C@@H](NC(=O)c2cc3nn[nH]c3cc2OC)C1 [Compound 7b, (R)-N-(1-ethyl-1H-hexahydroazepin-3-yl)-6-methoxy-1H-benzotriazole-5-carboxamide.3/2 fumarate]	945 mg/kg	+	++	++	significantly improved gastric emptying delayed by cholecystokinin or morphine	especially excellent gastrointestinal motility improving activity	caused interdigestive migrating like-contractions in fed state in conscious dogs	+	++	++	significantly improved gastric emptying delayed by cholecystokinin or morphine	34%	69%	100%	> 100 mg/kg		
CCN(CC)CCNC(=O)c1cc(Cl)c(N)cc1OC [metoclopramide, 4-amino-5-chloro-N-[2-(diethylamino)ethyl]-2-methoxybenzamide]																dopamine D2 receptor antagonistic activity	possesses CNS depressant activity
